The results in this text go back to ChEMBL document CHEMBL4396868, “Discovery of Potent, Selective, and Brain-Penetrant 1 H-Pyrazol-5-yl-1 H-pyrrolo[2,3- b]pyridines as Anaplastic Lymphoma Kinase (ALK) Inhibitors” (J Med Chem, 2019).

The target of series [1] is T1, ALK tyrosine kinase receptor (Homo sapiens, UniProt Q9UM73). The class given is cell-based, HEK293.
Description: Inhibition of recombinant human ALK expressed in HEK293 cells assessed as reduction in ALK autophosphorylation at Tyr1604 residue incubated for 60 mins by sandwich ELISA
Series [2] deals with High affinity nerve growth factor receptor (Homo sapiens, UniProt P04629). Description: Inhibition of N-terminal GST-tagged human TrkA kinase domain (436 to 790 residues) expressed in baculovirus expression system using biotin-poly-GT as substrate pre-incubated for 5 mins followed by ATP addition and measured after 60 mins by alpha screen assay. For orientation: Bead proximity is the source of the signal in Alpha formats.
Chain of High affinity nerve growth factor receptor (P04629 whole entry, the tested form may be a part): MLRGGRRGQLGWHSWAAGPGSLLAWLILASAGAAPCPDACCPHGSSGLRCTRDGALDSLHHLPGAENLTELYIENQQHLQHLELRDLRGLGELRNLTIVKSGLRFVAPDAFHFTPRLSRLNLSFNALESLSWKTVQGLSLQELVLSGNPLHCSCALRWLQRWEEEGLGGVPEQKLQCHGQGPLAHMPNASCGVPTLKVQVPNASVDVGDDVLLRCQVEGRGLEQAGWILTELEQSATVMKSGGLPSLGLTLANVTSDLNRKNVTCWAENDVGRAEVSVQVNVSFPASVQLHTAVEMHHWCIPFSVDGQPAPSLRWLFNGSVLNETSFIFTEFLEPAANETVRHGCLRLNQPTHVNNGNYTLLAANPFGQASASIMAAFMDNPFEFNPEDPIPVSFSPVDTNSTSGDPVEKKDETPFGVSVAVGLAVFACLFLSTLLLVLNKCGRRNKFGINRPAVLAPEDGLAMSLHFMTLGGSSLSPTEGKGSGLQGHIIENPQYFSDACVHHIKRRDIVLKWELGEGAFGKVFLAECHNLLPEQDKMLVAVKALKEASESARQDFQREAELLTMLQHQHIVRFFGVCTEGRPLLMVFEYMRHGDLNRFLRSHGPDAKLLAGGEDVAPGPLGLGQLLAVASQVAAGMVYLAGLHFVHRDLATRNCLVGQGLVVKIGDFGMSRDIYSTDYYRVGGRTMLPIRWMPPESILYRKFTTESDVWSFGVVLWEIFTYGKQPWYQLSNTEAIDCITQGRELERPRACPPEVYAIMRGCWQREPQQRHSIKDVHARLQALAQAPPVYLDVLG

Series [3] addresses T1, ALK tyrosine kinase receptor.
Description: Inhibition of human ALK kinase domain (1058 to 1620 residues) expressed in baculovirus expression system using biotin-poly-GT as substrate pre-incubated for 10 mins followed by ATP addition and measured after 60 mins by HTRF method
Another series is filed under the species Homo sapiens. Description: Selectivity ratio of IC50 for N-terminal GST-tagged human TrkA kinase domain (436 to 790 residues) expressed in baculovirus expression system to IC50 for human ALK kinase domain (1058 to 1620 residues) expressed in baculovirus expression system.
For a further series, the target named is MDR1 (ABCB1, P-gp) (Homo sapiens, UniProt P08183). Description: Substrate activity at human MDR1 expressed in pig LLC-PK1 cells assessed as efflux ratio of apparent permeability across basolateral to apical over apical to basolateral side at 10 uM after 2 hrs by LC/MS/MS analysis. The format is ADME, cell-based.
Chain of MDR1 (ABCB1, P-gp) (P08183 whole entry): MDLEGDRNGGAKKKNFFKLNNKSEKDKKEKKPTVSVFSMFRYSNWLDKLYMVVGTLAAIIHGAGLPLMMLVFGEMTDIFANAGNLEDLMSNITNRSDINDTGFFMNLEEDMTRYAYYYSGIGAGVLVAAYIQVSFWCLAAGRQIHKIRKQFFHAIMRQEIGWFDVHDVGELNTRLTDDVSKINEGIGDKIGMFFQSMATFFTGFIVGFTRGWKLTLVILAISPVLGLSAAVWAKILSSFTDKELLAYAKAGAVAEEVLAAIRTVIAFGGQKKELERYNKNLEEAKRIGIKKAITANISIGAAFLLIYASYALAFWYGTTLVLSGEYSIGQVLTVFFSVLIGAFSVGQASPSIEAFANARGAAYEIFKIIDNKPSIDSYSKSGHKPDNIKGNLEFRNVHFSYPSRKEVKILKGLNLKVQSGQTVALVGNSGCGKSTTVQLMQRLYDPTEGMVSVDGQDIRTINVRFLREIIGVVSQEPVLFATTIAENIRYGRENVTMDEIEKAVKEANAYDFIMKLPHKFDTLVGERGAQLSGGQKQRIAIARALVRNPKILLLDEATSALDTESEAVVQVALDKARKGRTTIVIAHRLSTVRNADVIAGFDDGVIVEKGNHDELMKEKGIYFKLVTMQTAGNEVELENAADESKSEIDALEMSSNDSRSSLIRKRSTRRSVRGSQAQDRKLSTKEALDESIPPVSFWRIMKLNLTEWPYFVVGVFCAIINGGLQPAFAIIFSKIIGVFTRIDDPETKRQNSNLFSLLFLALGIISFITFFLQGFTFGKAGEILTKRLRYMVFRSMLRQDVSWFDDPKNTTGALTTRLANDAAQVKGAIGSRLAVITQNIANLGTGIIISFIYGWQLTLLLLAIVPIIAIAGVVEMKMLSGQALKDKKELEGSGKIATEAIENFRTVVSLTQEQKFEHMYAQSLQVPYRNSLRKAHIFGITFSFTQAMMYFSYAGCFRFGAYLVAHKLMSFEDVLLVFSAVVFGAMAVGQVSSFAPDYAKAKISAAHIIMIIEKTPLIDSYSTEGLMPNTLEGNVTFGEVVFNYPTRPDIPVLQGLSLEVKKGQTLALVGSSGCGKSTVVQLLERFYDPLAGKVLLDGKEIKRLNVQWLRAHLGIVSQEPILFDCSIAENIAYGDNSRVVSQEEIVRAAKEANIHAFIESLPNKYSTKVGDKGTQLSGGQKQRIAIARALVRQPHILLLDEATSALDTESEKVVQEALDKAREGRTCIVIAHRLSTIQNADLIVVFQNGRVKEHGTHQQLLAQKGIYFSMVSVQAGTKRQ

T1 sequence (Q9UM73 whole entry, the tested form may be a part): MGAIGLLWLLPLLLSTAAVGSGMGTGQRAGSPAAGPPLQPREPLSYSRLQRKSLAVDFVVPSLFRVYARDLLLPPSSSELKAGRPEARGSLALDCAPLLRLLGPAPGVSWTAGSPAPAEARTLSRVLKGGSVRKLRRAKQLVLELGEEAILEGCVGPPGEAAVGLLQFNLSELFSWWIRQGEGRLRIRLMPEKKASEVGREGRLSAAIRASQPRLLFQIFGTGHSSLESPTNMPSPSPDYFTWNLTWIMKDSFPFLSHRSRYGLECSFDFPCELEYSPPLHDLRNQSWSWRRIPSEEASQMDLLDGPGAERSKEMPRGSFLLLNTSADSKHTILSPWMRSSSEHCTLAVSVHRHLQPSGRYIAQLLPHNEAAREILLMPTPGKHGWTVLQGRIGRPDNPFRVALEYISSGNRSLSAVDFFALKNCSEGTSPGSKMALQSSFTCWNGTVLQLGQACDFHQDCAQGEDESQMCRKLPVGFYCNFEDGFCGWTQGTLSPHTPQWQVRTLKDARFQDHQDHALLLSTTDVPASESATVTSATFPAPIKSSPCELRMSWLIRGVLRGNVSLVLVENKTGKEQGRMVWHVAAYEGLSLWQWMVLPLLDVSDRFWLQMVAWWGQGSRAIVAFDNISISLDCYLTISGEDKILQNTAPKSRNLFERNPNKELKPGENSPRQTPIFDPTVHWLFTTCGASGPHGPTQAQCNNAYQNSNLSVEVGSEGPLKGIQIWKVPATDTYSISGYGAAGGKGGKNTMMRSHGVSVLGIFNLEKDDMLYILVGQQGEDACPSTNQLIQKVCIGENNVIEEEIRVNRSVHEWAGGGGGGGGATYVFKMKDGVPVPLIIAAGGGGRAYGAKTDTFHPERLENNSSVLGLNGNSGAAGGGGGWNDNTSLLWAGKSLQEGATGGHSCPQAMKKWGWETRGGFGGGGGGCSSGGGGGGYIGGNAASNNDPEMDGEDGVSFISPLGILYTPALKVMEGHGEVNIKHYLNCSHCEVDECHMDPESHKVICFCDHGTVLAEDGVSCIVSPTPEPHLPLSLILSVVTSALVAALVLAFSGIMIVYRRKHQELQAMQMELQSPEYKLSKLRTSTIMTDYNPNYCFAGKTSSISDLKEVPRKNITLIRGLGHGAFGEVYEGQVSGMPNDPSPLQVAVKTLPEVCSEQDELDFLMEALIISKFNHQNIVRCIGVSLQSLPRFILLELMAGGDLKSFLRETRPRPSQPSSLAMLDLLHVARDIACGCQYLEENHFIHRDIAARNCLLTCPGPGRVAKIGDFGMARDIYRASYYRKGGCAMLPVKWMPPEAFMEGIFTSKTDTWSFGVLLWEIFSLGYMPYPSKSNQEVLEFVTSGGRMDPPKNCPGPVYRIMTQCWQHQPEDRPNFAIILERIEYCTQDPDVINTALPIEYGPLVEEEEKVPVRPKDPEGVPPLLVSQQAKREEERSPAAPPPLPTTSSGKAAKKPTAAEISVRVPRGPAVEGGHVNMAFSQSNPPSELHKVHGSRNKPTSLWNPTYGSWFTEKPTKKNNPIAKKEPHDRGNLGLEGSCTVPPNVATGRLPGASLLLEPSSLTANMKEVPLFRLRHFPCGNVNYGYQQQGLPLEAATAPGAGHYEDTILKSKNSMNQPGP

`Cc1cc(-c2cnc3ccc(N[C@@H](C)c4ccc(F)cc4F)nn23)[nH]n1`: the values for the IC50 in series [1], in series [2] and in series [3] were 0.006 µM, 0.0001 µM and 0.002 µM, respectively.

For `CCS(=O)(=O)c1cn(-c2cc(C)[nH]n2)c2nc(N[C@@H](C)c3ccc(F)cn3)ccc12`, the values for the IC50 in series [1], in series [2] and in series [3] were 0.037 µM, 0.11 µM and 0.0096 µM, respectively.

Consider `Cc1cc(-n2cc(C(=O)N3CCN(C)CC3)c3ccc(N[C@@H](C)c4ccc(F)cn4)nc32)[nH]n1`, for which the IC50 (commonly the concentration needed to halve the response being measured) in series [1] came out at 0.037 µM; in series [2], 0.25 µM; in series [3], 0.0061 µM.

As for `Cc1cc(-n2cc(S(=O)(=O)C(C)C)c3ccc(N[C@@H](C)c4ccc(F)cn4)nc32)n[nH]1`, the figures for the IC50 in series [1], in series [2] and in series [3] were 0.27 µM, 1.7 µM and 0.018 µM, respectively. In the series filed under Homo sapiens, the Ratio IC50 turned out to be 94.

With `Cc1cc(-n2cc(C(=O)N3CCO[C@H](C)C3)c3ccc(O[C@H](C)c4ccc(F)cn4)nc32)[nH]n1` (relative stereo), the IC50 is 0.042 µM in series [1], 3.4 µM in series [2] and 0.0046 µM in series [3]. For the same compound, the efflux ratio (as a rule, a quotient of directional permeabilities that is used to spot active efflux) at 2 h, 10 µM at MDR1 (ABCB1, P-gp) stood at 1.3.

For the compound `Cc1cc(-n2cc(S(C)(=O)=O)c3ccc(N[C@@H](C)c4ccc(F)cc4F)nc32)n[nH]1`, the IC50 in series [1] came to 0.027 µM; in series [2] it was 0.015 µM; in series [3], 0.0012 µM.

On to `Cc1cc(-n2cc(C3=CCOCC3)c3ccc(N[C@@H](C)c4ccc(F)cn4)nc32)[nH]n1`, for which the IC50 in series [1] is 0.0094 µM; in series [2], 0.0027 µM; in series [3], 0.0019 µM.

With `Cc1cc(-n2cc(C(=O)N3CCOCC3)c3ccc(N[C@@H](C)c4ccc(F)cn4)nc32)[nH]n1`, the IC50 was 0.023 µM in series [1], 1.2 µM in series [2] and 0.0025 µM in series [3]. For the same compound, in the series filed under Homo sapiens, the Ratio IC50 worked out at 480. Also, the efflux ratio at 2 h, 10 µM at MDR1 (ABCB1, P-gp) is 18.

As to `Cc1cc(-n2ccc3ccc(N[C@@H](C)c4ccc(F)cc4F)nc32)[nH]n1`, the IC50 was 0.14 µM in series [1], below 0.01 µM in series [2] and 0.014 µM in series [3].

Turning to `Cc1cc(-n2cc(S(=O)(=O)C3COC3)c3ccc(N[C@@H](C)c4ccc(F)cn4)nc32)n[nH]1`, the IC50 was determined as 0.06 µM in series [1], 0.73 µM in series [2] and 0.02 µM in series [3].

`Cc1cc(-n2cc(S(C)(=O)=O)c3ccc(N[C@@H](C)c4ccc(F)cn4)nc32)n[nH]1`: the values for the IC50 in series [1], in series [2] and in series [3] were 0.013 µM, 0.045 µM and 0.0033 µM, respectively.

Regarding `Cc1cc(-c2cnc3ccc(N[C@H](C)c4ccc(F)cc4F)nn23)[nH]n1`, in series [3], half-maximal inhibition (IC50) was put at 1 µM.

Take `COCc1cn(-c2cc(C)n[nH]2)c2nc(OC(C)c3ccc(F)cn3)ccc12` (racemic; 15): the IC50 in series [2] is below 0.01 µM; in series [3], 0.0032 µM.

As for `Cc1cc(-n2cc(C(=O)N(C)C)c3ccc(N[C@@H](C)c4ccc(F)cn4)nc32)[nH]n1`, the results for the IC50 in series [1], in series [2] and in series [3] were 0.016 µM, 0.12 µM and 0.0018 µM, respectively. Moreover, the Ratio IC50 in the series filed under Homo sapiens came to 67.

In the case of `Cc1cc(-n2cc(C(=O)N3CCOCC3)c3ccc(OC(C)c4ccc(F)cn4)nc32)[nH]n1` (racemic), the IC50 in series [1] amounted to 0.069 µM; in series [2], 1.4 µM; in series [3], 0.0062 µM. Moreover, the efflux ratio at 2 h, 10 µM on MDR1 (ABCB1, P-gp) is 3.1.

For `COCc1cn(-c2cc(C)n[nH]2)c2nc(OC(C)c3ccc(F)cn3)ccc12` (racemic; 16), the IC50 in series [2] stood at 1.5 µM; in series [3], 2.8 µM.
